What all share (format): binding
The target of one experiment is T1, PIK3C2B (Homo sapiens, UniProt O00750).
T1 construct: purchased Ambit Biosciences (scanMAXX KINOMEscan)
Put plainly: KINOMEscan, PIK3C2B. Conditions: for remaining binding at 1 µM / remaining binding at 10 µM: kinase PIK3C2B; for remaining binding at 1 µM: read-out: % of control at 1 µM; for remaining binding at 10 µM: read-out: % of control at 10 µM.

Experiment [1] concerns the target T2, pseudokinase JH2 domain of JAK1 (Homo sapiens, UniProt P23458).
T2 construct: the pseudokinase JH2 domain of JAK1 (89%); purchased Ambit Biosciences (scanMAXX KINOMEscan)
The experiment can be described thus: KINOMEscan, JAK1 JH2 domain. The conditions noted are these: for remaining binding at 1 µM / remaining binding at 10 µM: kinase JAK1(JH2domain-pseudokinase); for remaining binding at 1 µM: read-out: % of control at 1 µM; for remaining binding at 10 µM: read-out: % of control at 10 µM.

In experiment [2] the target is T3, catalytic JH1 domain of JAK2 (Homo sapiens, UniProt O60674).
T3 construct: the catalytic JH1 domains of JAK1 and JAK2; purchased Ambit Biosciences (scanMAXX KINOMEscan)
T3 sequence (O60674 849-1124 limits assumed): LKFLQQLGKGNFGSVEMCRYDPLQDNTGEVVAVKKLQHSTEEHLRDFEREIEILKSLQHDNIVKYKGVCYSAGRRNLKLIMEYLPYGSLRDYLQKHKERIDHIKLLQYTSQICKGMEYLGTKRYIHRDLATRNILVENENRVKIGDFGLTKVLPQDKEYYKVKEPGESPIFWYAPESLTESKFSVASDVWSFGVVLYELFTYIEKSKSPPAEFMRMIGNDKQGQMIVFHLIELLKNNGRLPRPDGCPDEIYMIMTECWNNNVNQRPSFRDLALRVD
The experiment can be described thus: KINOMEscan, JAK2 JH1 domain. The conditions noted are these: for remaining binding at 1 µM / remaining binding at 10 µM: kinase JAK2(JH1domain-catalytic); for remaining binding at 1 µM: read-out: % of control at 1 µM; for remaining binding at 10 µM: read-out: % of control at 10 µM.

In experiment [3] the target is T4, panel of 442 kinases (Homo sapiens, UniProt Q09013).
T4 construct: purchased Ambit Biosciences (scanMAXX KINOMEscan)
T4 sequence (Q09013 1-629): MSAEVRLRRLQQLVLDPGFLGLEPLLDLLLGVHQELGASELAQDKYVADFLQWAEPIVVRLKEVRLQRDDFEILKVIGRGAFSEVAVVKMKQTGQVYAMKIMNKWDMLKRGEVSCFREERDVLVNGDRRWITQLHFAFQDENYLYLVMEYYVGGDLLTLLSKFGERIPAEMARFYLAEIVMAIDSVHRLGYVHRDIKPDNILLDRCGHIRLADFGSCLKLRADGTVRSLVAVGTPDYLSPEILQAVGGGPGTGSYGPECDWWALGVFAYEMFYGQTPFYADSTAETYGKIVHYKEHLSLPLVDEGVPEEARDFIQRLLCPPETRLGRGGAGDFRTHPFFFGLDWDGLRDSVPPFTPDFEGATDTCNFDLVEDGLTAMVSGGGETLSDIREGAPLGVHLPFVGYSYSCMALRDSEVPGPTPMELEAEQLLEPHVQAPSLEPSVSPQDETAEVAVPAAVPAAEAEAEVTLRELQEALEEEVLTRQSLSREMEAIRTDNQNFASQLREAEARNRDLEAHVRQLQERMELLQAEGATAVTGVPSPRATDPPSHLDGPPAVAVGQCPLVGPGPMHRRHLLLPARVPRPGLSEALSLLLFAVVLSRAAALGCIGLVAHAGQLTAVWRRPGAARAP
The experiment can be described thus: biochemical. Conditions: DMPK; for remaining activity at 1 µM: read-out: % of control at 1 µM.

The target in experiment [4] is T5, panel of 442 kinases (Homo sapiens, UniProt P20794).
T5 construct: purchased Ambit Biosciences (scanMAXX KINOMEscan)
T5 sequence (P20794 1-623): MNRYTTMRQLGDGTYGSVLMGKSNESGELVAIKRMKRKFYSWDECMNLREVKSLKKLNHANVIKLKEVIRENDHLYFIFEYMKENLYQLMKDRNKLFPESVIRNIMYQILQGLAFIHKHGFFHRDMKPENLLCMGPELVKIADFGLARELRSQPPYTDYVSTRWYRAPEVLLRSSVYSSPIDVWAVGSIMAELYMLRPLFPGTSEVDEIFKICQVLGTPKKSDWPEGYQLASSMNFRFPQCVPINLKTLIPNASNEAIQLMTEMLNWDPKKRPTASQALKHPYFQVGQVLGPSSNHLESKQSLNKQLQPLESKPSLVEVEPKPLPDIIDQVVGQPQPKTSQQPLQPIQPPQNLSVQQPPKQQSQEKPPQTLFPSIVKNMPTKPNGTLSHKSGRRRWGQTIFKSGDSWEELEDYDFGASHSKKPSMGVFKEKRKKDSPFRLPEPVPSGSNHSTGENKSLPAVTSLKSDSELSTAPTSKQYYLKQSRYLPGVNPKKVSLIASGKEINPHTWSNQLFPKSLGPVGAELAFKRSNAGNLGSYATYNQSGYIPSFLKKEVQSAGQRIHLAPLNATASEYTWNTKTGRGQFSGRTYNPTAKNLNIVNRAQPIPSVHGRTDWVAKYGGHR
Put plainly: biochemical. Conditions: kinase MAK; for remaining activity at 1 µM: read-out: % of control at 1 µM.

Experiment [5] concerns the target T6, panel of 442 kinases (Homo sapiens, UniProt Q13177).
T6 construct: purchased Ambit Biosciences (scanMAXX KINOMEscan)
Put plainly: biochemical. The conditions noted are these: kinase PAK2; for remaining activity at 1 µM: read-out: % of control at 1 µM.

The target of experiment [6] is T7, panel of 442 kinases (Homo sapiens, UniProt Q96Q40).
T7 construct: purchased Ambit Biosciences (scanMAXX KINOMEscan)
T7 sequence (Q96Q40 whole entry): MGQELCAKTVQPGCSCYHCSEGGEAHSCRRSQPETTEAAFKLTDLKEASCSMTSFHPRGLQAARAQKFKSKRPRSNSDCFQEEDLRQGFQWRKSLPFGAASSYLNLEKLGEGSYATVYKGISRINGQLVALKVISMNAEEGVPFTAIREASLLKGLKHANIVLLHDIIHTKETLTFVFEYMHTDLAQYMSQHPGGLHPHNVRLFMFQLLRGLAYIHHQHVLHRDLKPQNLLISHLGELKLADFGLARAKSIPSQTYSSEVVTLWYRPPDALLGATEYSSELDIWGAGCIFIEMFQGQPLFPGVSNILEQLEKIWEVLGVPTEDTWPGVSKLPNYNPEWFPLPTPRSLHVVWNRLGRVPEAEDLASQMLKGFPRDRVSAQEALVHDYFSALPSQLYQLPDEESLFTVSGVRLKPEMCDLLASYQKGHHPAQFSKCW
The experiment can be described thus: biochemical. The conditions noted are these: kinase PFTAIRE2; for remaining activity at 1 µM: read-out: % of control at 1 µM.

Experiment [7] deals with T8, panel of 442 kinases (Homo sapiens, UniProt P10721).
T8 construct: purchased Ambit Biosciences (scanMAXX KINOMEscan)
T8 sequence (P10721 26-976): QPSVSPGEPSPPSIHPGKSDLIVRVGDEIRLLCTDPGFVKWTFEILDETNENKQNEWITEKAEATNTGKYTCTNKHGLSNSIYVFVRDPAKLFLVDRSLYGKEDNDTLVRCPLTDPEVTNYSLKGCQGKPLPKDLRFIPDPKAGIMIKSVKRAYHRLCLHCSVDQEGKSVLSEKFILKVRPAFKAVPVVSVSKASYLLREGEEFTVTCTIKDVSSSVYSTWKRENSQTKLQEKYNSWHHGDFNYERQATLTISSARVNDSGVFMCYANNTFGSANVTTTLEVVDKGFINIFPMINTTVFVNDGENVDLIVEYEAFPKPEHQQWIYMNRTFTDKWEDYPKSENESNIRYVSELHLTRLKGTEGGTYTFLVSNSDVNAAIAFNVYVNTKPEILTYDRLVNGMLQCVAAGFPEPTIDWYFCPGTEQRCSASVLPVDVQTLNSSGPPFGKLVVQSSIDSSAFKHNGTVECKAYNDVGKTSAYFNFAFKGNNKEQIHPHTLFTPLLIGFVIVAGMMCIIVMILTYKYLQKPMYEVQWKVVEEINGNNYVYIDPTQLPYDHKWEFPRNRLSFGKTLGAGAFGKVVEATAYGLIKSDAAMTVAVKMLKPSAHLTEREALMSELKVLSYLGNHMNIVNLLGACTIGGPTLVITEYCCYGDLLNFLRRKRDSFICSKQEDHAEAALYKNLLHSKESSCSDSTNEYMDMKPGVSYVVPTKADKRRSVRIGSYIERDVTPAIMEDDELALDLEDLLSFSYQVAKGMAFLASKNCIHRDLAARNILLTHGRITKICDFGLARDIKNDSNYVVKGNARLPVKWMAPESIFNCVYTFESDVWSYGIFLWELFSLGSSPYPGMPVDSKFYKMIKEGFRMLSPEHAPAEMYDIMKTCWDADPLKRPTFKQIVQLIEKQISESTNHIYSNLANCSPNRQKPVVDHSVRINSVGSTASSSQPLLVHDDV
Put plainly: biochemical. The conditions noted are these: kinase KIT; for remaining activity at 1 µM: read-out: % of control at 1 µM.

The target in experiment [8] is T9, panel of 442 kinases (Homo sapiens, UniProt Q08881).
T9 construct: purchased Ambit Biosciences (scanMAXX KINOMEscan)
T9 sequence (Q08881 1-620): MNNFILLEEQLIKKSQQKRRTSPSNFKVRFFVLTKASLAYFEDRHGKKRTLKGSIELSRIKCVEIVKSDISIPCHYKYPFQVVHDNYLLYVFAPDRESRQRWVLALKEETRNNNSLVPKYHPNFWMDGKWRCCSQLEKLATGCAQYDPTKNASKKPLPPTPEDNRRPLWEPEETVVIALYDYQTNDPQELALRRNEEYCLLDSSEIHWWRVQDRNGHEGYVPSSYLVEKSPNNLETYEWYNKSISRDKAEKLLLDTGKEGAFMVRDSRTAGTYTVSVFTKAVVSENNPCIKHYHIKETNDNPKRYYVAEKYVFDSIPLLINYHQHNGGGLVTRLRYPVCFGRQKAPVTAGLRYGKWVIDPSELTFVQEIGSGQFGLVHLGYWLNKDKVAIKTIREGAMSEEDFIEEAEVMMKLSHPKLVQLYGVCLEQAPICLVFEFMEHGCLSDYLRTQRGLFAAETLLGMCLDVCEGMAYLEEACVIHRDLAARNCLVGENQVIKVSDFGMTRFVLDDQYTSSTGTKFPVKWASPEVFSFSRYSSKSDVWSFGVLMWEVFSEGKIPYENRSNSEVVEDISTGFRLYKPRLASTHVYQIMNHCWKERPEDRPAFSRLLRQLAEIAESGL
The experiment can be described thus: biochemical. Conditions: kinase ITK; for remaining activity at 1 µM: read-out: % of control at 1 µM.

The mark [9] stands for this setting: 10 µM, read-out: % of control at 10 µM.

As usually defined, the inhibition is the percentage by which the read-out fell short of the control. Read a high inhibition as strong suppression.

T2 sequence (P23458 583-855 limits assumed): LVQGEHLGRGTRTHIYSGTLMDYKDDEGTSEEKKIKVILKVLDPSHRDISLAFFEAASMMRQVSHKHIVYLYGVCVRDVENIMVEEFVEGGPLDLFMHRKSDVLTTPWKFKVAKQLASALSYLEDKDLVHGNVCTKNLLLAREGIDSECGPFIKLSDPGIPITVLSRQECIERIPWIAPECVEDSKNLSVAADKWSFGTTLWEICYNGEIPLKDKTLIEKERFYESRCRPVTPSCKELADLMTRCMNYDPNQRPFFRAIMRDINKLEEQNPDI
T1 sequence (O00750 whole entry): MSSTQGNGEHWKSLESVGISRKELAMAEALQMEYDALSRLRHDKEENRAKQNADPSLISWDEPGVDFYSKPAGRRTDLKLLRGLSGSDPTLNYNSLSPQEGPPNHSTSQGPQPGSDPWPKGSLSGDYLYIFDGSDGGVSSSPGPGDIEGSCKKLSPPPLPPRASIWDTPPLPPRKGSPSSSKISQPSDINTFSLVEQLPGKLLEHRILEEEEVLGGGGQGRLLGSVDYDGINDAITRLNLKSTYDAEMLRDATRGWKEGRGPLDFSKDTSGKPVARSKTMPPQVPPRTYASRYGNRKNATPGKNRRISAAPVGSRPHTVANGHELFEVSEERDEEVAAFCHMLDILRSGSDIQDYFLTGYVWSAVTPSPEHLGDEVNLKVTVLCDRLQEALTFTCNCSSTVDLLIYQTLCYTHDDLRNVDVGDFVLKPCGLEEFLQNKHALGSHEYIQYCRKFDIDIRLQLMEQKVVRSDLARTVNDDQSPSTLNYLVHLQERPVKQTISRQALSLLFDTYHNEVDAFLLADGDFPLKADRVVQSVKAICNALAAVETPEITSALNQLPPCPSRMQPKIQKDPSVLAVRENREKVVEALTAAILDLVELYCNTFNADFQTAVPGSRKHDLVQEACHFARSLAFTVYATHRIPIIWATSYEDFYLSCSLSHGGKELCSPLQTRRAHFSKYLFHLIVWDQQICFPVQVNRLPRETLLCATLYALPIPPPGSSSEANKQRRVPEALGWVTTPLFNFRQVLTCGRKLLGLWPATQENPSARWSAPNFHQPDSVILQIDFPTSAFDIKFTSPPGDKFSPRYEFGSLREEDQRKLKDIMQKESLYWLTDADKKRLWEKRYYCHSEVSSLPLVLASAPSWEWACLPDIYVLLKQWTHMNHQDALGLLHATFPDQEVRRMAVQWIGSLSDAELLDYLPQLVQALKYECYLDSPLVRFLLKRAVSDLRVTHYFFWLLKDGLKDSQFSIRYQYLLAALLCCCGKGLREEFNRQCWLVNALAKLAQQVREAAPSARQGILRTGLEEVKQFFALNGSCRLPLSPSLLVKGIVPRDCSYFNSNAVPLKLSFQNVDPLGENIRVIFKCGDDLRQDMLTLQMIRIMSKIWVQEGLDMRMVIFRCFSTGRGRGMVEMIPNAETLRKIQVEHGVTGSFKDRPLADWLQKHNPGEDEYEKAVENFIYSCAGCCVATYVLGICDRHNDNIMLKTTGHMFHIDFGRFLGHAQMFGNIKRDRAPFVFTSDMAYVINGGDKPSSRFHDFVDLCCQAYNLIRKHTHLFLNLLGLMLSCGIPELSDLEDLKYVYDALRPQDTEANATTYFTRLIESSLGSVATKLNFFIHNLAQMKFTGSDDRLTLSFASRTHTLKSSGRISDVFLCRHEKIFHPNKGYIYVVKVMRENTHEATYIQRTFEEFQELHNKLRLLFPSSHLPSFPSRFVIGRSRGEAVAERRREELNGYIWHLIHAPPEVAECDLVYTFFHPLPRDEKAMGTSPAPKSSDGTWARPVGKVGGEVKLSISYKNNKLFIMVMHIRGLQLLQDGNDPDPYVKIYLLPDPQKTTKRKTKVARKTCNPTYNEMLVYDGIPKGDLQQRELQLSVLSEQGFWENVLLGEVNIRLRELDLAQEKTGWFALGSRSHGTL
T6 sequence (Q13177 whole entry): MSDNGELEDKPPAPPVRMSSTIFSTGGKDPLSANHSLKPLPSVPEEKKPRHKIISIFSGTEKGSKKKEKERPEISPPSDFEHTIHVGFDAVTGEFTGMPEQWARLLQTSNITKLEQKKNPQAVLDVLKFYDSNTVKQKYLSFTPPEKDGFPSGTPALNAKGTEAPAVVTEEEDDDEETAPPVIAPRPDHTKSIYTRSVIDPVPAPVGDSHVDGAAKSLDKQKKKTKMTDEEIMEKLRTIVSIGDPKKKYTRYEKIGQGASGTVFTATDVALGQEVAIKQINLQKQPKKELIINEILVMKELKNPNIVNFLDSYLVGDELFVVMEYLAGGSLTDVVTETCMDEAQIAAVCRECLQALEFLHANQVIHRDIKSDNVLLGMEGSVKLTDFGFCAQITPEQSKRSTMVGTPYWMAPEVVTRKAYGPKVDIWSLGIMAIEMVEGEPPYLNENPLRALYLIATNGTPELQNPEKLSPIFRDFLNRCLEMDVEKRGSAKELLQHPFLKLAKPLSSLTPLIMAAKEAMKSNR

Take `Nc1cc(C(F)(F)F)c(-c2cc(N3CCOCC3)nc(N3CCOCC3)n2)cn1` [Buparlisib]: the remaining binding at 1 µM at PIK3C2B turned out to be 97%; in experiment [1], 89%; in experiment [2] it was 63%. For the same molecule, the remaining binding at 10 µM at PIK3C2B is 100%; in experiment [1], 76%; in experiment [2], 79%. Moreover, the remaining activity at 1 µM on panel of 442 kinases [3] was 79%; on panel of 442 kinases [4], 98%; on panel of 442 kinases [5], 68%; on panel of 442 kinases [6] it was 100%; at panel of 442 kinases [7] it was 89%; on panel of 442 kinases [8] it was 100%. Also, the remaining activity at 10 µM on panel of 442 kinases [3] (setting [9]) is 83%; at panel of 442 kinases [4] (setting [9]) it was 89%; at panel of 442 kinases [5] (setting [9]), 83%; at panel of 442 kinases [6] (setting [9]), 100%; at panel of 442 kinases [7] (setting [9]), 66%; on panel of 442 kinases [8] (setting [9]) it was 100%.
With `Cn1c(=O)n(-c2ccc(C(C)(C)C#N)cc2)c2c3cc(-c4cnc5ccccc5c4)ccc3ncc21` [Dactolisib, 2-methyl-2-[4-(3-methyl-2-oxo-8-quinolin-3-yl-2,3-dihydroimidazo[4,5-c]quinolin-1-yl)-phenyl] propionitrile], the inhibition at 1 µM (against PIK3C2B (1 μM); in experiment [2] (1 μM)) was greater than 80% each time. Further, the remaining binding at 1 µM at PIK3C2B was determined as 9.9%; in experiment [1] it was 43%; in [2] it was 8.2%. In addition, the remaining activity at 1 µM at panel of 442 kinases [3] was 88%; on panel of 442 kinases [4], 64%; at panel of 442 kinases [6], 82%; on panel of 442 kinases [7], 63%; on panel of 442 kinases [8], 91%.
With `COc1ncc(-c2ccc3nccc(-c4ccnnc4)c3c2)cc1NS(=O)(=O)c1ccc(F)cc1F` [Omipalisib], at PIK3C2B (1 μM), the “off-target binding to PIK3C2B” value is given as “non-selective”. Moreover, the remaining binding at 1 µM at PIK3C2B amounted to 0%; in [1], 57%; in [2], 90%. The remaining activity at 1 µM came to 100% at panel of 442 kinases [3]; 71% on panel of 442 kinases [4]; 57% on panel of 442 kinases [5]; 100% on panel of 442 kinases [6]; 100% on panel of 442 kinases [7]; 86% at panel of 442 kinases [8].
For `CS(=O)(=O)N1CCN(Cc2cc3nc(-c4cccc5[nH]ncc45)nc(N4CCOCC4)c3s2)CC1` [Pictilisib, 2-(1H-indazol-4-yl)-6-(4-methanesulfonyl-piperazin-1-ylmethyl)-4-morpholin-4-yl-t hieno[3,2-d]pyrimidine], on PIK3C2B (10 μM), the “off-target activity against PIK3C2B” value was “active”. The values for the remaining binding at 1 µM (at PIK3C2B; in [1]; in [2]) were 54%, 11% and 100%, respectively. In addition, the figures for the remaining binding at 10 µM (at PIK3C2B; in experiment [1]; in experiment [2]) were 0.45%, 0.85% and 26%, respectively. In addition, 1 µM produced 89% inhibition in experiment [1] (1 μM).
Consider `FC(F)c1nc2ccccc2n1-c1nc(N2CCOCC2)nc(N2CCOCC2)n1` [ZSTK474, 2-(difluoromethyl)-1-[4,6-di(4-morpholinyl)-1,3,5-triazin-2-yl]-1H-benzimidazole], for which the “off-target binding to PIK3C2B” value on PIK3C2B (1 μM) is “high binding affinity”. The remaining binding at 1 µM at PIK3C2B was determined as 0.85%; in experiment [1], 100%; in [2] it was 100%. Further, the remaining activity at 1 µM at panel of 442 kinases [3] stood at 100%; on panel of 442 kinases [4], 87%; at panel of 442 kinases [5] it was 100%; at panel of 442 kinases [6], 83%; on panel of 442 kinases [7], 85%; at panel of 442 kinases [8], 97%.

(Values after PMC5564600 (Oncotarget, 2017).)
